System: feline calcivirus ATCC VR-782
Settings: 20 mg/L in a water based solution applied to a surface; 10 minutes exposure; non-enveloped virus
Method: Copper ions (20 mg/L) in a water based solution were applied to a surface with the non-enveloped feline calcivirus ATCC VR-782. […] In our case we wanted to have an idea about the rate of killing and this is why we limited the test to 10 minutes.

With copper iodide the “reduction relative to the control” value was 82.22%.
